# Results from patent US20120077836A1, “METHODS OF ADMINISTERING (4AR,10AR)-1-N-PROPYL-1,2,3,4,4A,5,10,10A-OCTAHYDROBENZO [G] QUINOLINE-6,7-DIOL AND RELATED COMPOUNDS ACROSS THE ORAL MUCOSA, THE NASAL MUCOSA OR THE SKIN AND PHARMACEUTICAL COMPOSITIONS THEREOF” (priority 2009, published 2012).
# Assays:
# [1] = test system: MPTP/AMPT mouse model; test: Superiority model, hypomotility in the MPTP/AMPT mouse model; type: in vivo
# Protocol: MPTP (1-methyl-4-phenyl-1,2,3,6-tetrahydropyridine) is a neurotoxin that causes permanent symptoms of Parkinson's disease by killing certain neurons in the substantia nigra of the brain. It is used to study the disease in monkeys and mice. […] Various compounds (all dosed subcutaneously) were tested for their ability to reverse the motility deficits produced in this model.
# [2] = test system: rats with unilateral 6-OHDA lesions; test: D1/D2 dissection, rotation response in rats with unilateral 6-OHDA lesions; type: in vivo, rat; settings: 6-OHDA rats; for MED (minimum effective dose to induce rotation) / MEDNemonapride (MED to overcome Nemonapride block): dosed SC; for MEDNemonapride (MED to overcome Nemonapride block): * = rotations could not be blocked by SCH23390
# Source text: Rats weighing 200-250 g were subjected to unilateral 6-OHDA lesions. […] Nemonapride is a D2 antagonist that blocks the D2 receptors, therefore any observed rotations would be dependent upon activity at the D1 receptors.
# [3] = test system: 6-OHDA rats; test: Reversal of L-DOPA-induced dyskinesias in 6-OHDA rats (AIMS); type: in vivo, rat; settings: after 7 days L-DOPA/Benserazide priming; once daily days 1-10: L-DOPA/Benserazide 6/15 mg/kg SC; compound 10 0.0013 mg/kg SC; pramipexole […] SC
# Source text: Animals were observed on Days 1, 3 and 5 and AIMS were scored. The day 5 scores were then used to separate the animals into three groups of 6 animals each. Group 1 continued with daily L-DOPA treatment. […] Treatment continued daily for 10 days and the amount of dyskinesia was scored on days 1, 5, 9 and 10.
# [4] = target: T1, human recombinant D1 receptor (Homo sapiens, UniProt P21728); test: D1 cAMP assay; type: cell-based; settings: read-out: intrinsic activity (efficacy)
# T1 construct: expressed in transfected cells
# Protocol: The ability of the compounds to either stimulate or inhibit the D1 receptor mediated cAMP formation in CHO cells stably expressing the human recombinant D1 receptor was measured as follows. Cells were seeded in 96-well plates at a concentration of 11000 cells/well 3 days prior to the experiment.
# [5] = target: T2, human D2 receptor (Homo sapiens, UniProt P14416); test: D2 cAMP assay; type: cell-based; settings: read-out: intrinsic activity (efficacy)
# T2 construct: expressed in transfected cells; host or cells: CHO cells
# Protocol: The ability of the compounds to either stimulate or inhibit the D2 receptor mediated inhibition of cAMP formation in CHO cells transfected with the human D2 receptor was measured as follows. Cells were seeded in 96 well plates at a concentration of 8000 cells/well 3 days prior to the experiment. On the day of the experiment the cells were washed once in preheated G buffer (1 mM MgCl2, 0.9 mM CaCl2, 1 mM IBMX in PBS) and the assay was initiated by addition of 100 micro-1 of a mixture of 1 micro-M quinpirole, 10 microM forskolin and test compound in G buffer (antagonism) or 10 micro-M forskolin and test compound in G buffer (agonism).
# [6] = test system: reserpinesed rats; test: Reversal of reserpine-induced hypomotility in rats; type: in vivo, rat
# Protocol: Rats weighing ca. 200 g were treated with reserpine (5 mg/kg subcutaneously as a solution in 20% aqueous solutol for which pH was adjusted to 4 with methanesulfonic acid). […] Group 1: treated with 20% ethanol in 0.7% aqueous sodium chloride subcutaneously.
# [7] = test system: rats with unilateral 6-OHDA lesions; test: Rotation response in 6-OHDA rats after buccal delivery; type: in vivo, rat
# [8] = test system: rats with unilateral 6-OHDA lesions; settings: rat, in vivo, sc
# [9] = test system: MPTP treated marmosets; test: Anti-parkinsonian effects in MPTP-treated common marmosets; type: in vivo, common marmoset; parameters: disability score (120 min) / disability score (180 min) / disability score (240 min) / disability score (300 min) / disability score (360 min) / disability score (420 min) / disability score (60 min): scale not given here
# Protocol: The experiments were conducted using 6 MPTP treated marmosets (2.0 mg/kg daily for up to 5 consecutive days dissolved in sterile 0.9% saline solution). All the animals had previously been treated with L-DOPA (12.5 mg/kg p.o., plus carbidopa 12.5 mg/kg p.o.) administered daily for up to 30 days in order to induce dyskinesia. […] Domperidone was administered 60 min before any of the test compounds. Domperidone is an antidopaminergic drug that suppresses nausea and vomiting. Locomotor activity was assessed using test cages that are comprised of 8 photo-electric switches comprised of 8 infra-red beams which are strategically placed in the cage and interruption of a beam is recorded as one count. […] The assessment of motor disability was performed by a trained observer blinded to the treatment.
# The dose chosen for this challenge is at the top of the dose response curve for this drug.
# [10] = Table 4e direct comparison, AMPT 250 mg/kg SC, apomorphine 1 mg/kg SC, pramipexole 1 mg/kg SC, compound 10 0.030 mg/kg SC, controls: vehicle 509, AMPT/vehicle 2
# T1 sequence (P21728 whole entry): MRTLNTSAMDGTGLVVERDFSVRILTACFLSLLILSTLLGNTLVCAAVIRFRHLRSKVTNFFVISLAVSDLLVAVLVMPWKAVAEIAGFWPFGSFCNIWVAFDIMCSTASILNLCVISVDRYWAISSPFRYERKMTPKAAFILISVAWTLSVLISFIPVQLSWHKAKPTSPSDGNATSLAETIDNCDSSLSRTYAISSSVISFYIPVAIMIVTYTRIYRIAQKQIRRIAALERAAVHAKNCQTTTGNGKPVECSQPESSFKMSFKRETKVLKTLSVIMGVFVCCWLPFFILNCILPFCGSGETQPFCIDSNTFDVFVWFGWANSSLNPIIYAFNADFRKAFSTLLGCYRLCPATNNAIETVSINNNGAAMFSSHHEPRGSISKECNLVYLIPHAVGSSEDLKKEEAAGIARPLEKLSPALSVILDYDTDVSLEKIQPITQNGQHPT
# T2 sequence (P14416 whole entry): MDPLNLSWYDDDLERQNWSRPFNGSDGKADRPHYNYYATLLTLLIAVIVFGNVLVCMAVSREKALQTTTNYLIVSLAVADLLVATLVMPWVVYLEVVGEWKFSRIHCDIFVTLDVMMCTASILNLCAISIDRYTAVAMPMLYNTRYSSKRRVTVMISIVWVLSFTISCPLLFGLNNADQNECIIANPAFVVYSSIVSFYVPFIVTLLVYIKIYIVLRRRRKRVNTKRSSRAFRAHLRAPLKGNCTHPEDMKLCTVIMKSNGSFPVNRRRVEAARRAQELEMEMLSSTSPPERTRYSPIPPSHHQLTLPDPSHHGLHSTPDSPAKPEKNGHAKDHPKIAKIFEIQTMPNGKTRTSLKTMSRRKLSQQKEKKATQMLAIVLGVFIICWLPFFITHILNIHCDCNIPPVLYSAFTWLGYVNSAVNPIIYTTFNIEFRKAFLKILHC
smiles,measurement,setting,value
CC(C)C[C@H]1C(=O)N2CCC[C@H]2[C@]2(O)O[C@](NC(=O)[C@@H]3C=C4c5cccc6[nH]c(Br)c(c56)C[C@H]4N(C)C3)(C(C)C)C(=O)N12 [bromocriptine],activity count (0.5-1.5 h),"[1]; Table 4d, AMPT 250 mg/kg SC, 1 mg/kg SC, controls: vehicle 336, AMPT/vehicle 16",25
same,activity count (0.5-1.5 h),"[1]; Table 4d, AMPT 250 mg/kg SC, 5 mg/kg SC",17
same,activity count (0.5-1.5 h),"[1]; Table 4d, AMPT 250 mg/kg SC, 10 mg/kg SC",36
CCCN[C@H]1CCc2nc(N)sc2C1 [pramipexole],MED (minimum effective dose to induce rotation),[2],0.1 mg/kg
same,MEDNemonapride (MED to overcome Nemonapride block),[2],1.0 mg/kg
same,"mean AIM score (days 1, 5, 9, 10)",[3],58
same,activity count (0.5-1.5 h),[1]; [10],176
"CN1CCc2cccc3c2[C@H]1Cc1ccc(O)c(O)c1-3 [apomorphine, reference compound]",Emax,[4],86%
same,Emax,[5],100%
same,MED (minimum effective dose to induce rotation),[2],0.010 mg/kg
same,MEDNemonapride (MED to overcome Nemonapride block),[2],0.030 mg/kg
same,reversal of motility deficits,"[1]; MPTP/AMPT mice, all dosed subcutaneously",restored locomotion in the mice in a dose-dependent manner
same,activity count (0.5-1.5 h),"[1]; Table 4b, AMPT 250 mg/kg SC at -1.5 h, 1.0 mg/kg SC, controls: vehicle 694, AMPT/vehicle 1",912
same,activity count (0.5-1.5 h),[1]; [10],904
same,reversal of reserpine-induced hypomotility,[6]; administered subcutaneously,reversed the reserpine-induced hypomotility
same,activity count,"[6]; reserpine 5 mg/kg SC 23-24 h before, apomorphine 1 mg/kg SC, compound 10 0.01 mg/kg SC, over 3 hours, controls: vehicle 486, reserpine/vehicle 17",440
same,mean number of rotations over 3 h,"[7]; apomorphine 0.1 mg/kg SC, compound 10 0.01 mg/kg buccally",1123
same,induction of rotation,"[7]; apomorphine subcutaneous, compound 10 buccal",induced rotations
same,dyskinesia score (AIMS),[8],about 65
CCCN(CCc1cccs1)[C@H]1CCc2c(O)cccc2C1 [rotigotine],D1 component in rotation model,[2]; SC,could not be observed
same,MED (minimum effective dose to induce rotation),[2],0.030 mg/kg
same,MEDNemonapride (MED to overcome Nemonapride block),[2],0.30 mg/kg
"N[C@@H](Cc1ccc(O)c(O)c1)C(=O)O [L-DOPA, reference compound]",disability score (60 min),[9]; 12.5 mg/kg PO,10.0
same,disability score (120 min),[9]; 12.5 mg/kg PO,2.0
same,disability score (180 min),[9]; 12.5 mg/kg PO,1.8
same,disability score (240 min),[9]; 12.5 mg/kg PO,3.2
same,disability score (300 min),[9]; 12.5 mg/kg PO,5.0
same,disability score (360 min),[9]; 12.5 mg/kg PO,9.7
same,disability score (420 min),[9]; 12.5 mg/kg PO,11.0
same,effect on locomotor activity and motor disability,"[9]; L-DOPA 12.5 mg/kg p.o., compound 10 0.001 or 0.01 mg/kg SC",increased locomotor activity and reversed motor disability
same,dyskinesia score (AIMS),[8],about 65
